# Measurements taken from patent US8222448B2, “Processes for production of 2-bromo-2,2-difluoroethanol and 2-(alkylcarbonyloxy)-1, 1-difluoroethanesulfonic acid salt” (priority 2007, dated 2012).
# Experiment: Solubility in propylene glycol methyl ether acetate
# Format: physicochemical
# Conditions: 1.0 g added to 100 g of propylene glycol methyl ether acetate, stirring
# Excerpt: 1.0 g of sodium 2-(1′-adamantane)carbonyloxy-1,1-difluoroethanesulfonate synthesized in Example 8 was weighed and added to 100 g of propylene glycol methyl ether acetate, followed by stirring.
structure (smiles),measurement,value
"O=C(OCC(F)(F)S(=O)(=O)[O-])C12CC3CC(CC(C3)C1)C2.c1ccc([S+](c2ccccc2)c2ccccc2)cc1 [Example 8, triphenylsulfonium 2-(1′-adamantane)carbonyloxy-1,1-difluoroethanesulfonate]",Solubility,completely dissolved
